# Source: ChEMBL document CHEMBL4507256 (2021)
# Experiments:
# [1] = test system: Tyrosine-protein kinase ABL1 (Homo sapiens), P00519 [Y253F]; conditions: Compound concentration 1000.0 nM
# [2] = molecular target: Ankyrin repeat and protein kinase domain-containing protein 1 (Homo sapiens) (UniProt Q8NFD2); conditions: Compound concentration 1000.0 nM
# [3] = molecular target: Mitogen-activated protein kinase kinase kinase 5 (Homo sapiens) (UniProt Q99683); conditions: Compound concentration 1000.0 nM
# [4] = molecular target: Tyrosine-protein kinase receptor UFO (Homo sapiens) (UniProt P30530); conditions: Compound concentration 1000.0 nM
# [5] = molecular target: Serine/threonine-protein kinase BRSK2 (Homo sapiens) (UniProt Q8IWQ3); conditions: Compound concentration 1000.0 nM
# [6] = molecular target: Calcium/calmodulin-dependent protein kinase type 1 (Homo sapiens) (UniProt Q14012); conditions: Compound concentration 1000.0 nM
# [7] = molecular target: Calcium/calmodulin-dependent protein kinase type 1B (Homo sapiens) (UniProt Q6P2M8); conditions: Compound concentration 1000.0 nM
# [8] = molecular target: Cyclin-dependent kinase 4 (Homo sapiens) (UniProt P11802); conditions: Compound concentration 1000.0 nM
# [9] = molecular target: Tyrosine-protein kinase CSK (Homo sapiens) (UniProt P41240); conditions: Compound concentration 1000.0 nM
# [10] = molecular target: Myotonin-protein kinase (Homo sapiens) (UniProt Q09013); conditions: Compound concentration 1000.0 nM
# [11] = molecular target: Serine/threonine-protein kinase MRCK gamma (Homo sapiens) (UniProt Q6DT37); conditions: Compound concentration 1000.0 nM
# [12] = molecular target: Ephrin type-A receptor 6 (Homo sapiens) (UniProt Q9UF33); conditions: Compound concentration 1000.0 nM
# [13] = molecular target: Mitogen-activated protein kinase 15 (Homo sapiens) (UniProt Q8TD08); conditions: Compound concentration 1000.0 nM
# [14] = molecular target: Serine/threonine-protein kinase/endoribonuclease IRE1 (Homo sapiens) (UniProt O75460); conditions: Compound concentration 1000.0 nM
# [15] = test system: Receptor-type tyrosine-protein kinase FLT3 (Homo sapiens), P36888 [K663Q]; conditions: Compound concentration 1000.0 nM
# [16] = molecular target: Inhibitor of nuclear factor kappa-B kinase subunit epsilon (Homo sapiens) (UniProt Q14164); conditions: Compound concentration 1000.0 nM
# [17] = test system: Mast/stem cell growth factor receptor Kit (Homo sapiens), P10721 [A829P]; conditions: Compound concentration 1000.0 nM
# [18] = molecular target: Mast/stem cell growth factor receptor Kit (Homo sapiens) (UniProt P10721); conditions: Compound concentration 1000.0 nM
# [19] = molecular target: Mitogen-activated protein kinase kinase kinase 1 (Homo sapiens) (UniProt Q13233); conditions: Compound concentration 1000.0 nM
# [20] = molecular target: Microtubule-associated serine/threonine-protein kinase 1 (Homo sapiens) (UniProt Q9Y2H9); conditions: Compound concentration 1000.0 nM
# [21] = molecular target: Serine/threonine-protein kinase 3 (Homo sapiens) (UniProt Q13188); conditions: Compound concentration 1000.0 nM
# [22] = molecular target: Serine/threonine-protein kinase Nek5 (Homo sapiens) (UniProt Q6P3R8); conditions: Compound concentration 1000.0 nM
# [23] = molecular target: Serine/threonine-protein kinase Nek9 (Homo sapiens) (UniProt Q8TD19); conditions: Compound concentration 1000.0 nM
# [24] = molecular target: Cyclin-dependent kinase 17 (Homo sapiens) (UniProt Q00537); conditions: Compound concentration 1000.0 nM
# [25] = molecular target: Phosphorylase b kinase gamma catalytic chain, skeletal muscle/heart isoform (Homo sapiens) (UniProt Q16816); conditions: Compound concentration 1000.0 nM
# [26] = molecular target: Phosphatidylinositol 3-kinase C2 domain-containing subunit gamma (Homo sapiens) (UniProt O75747); conditions: Compound concentration 1000.0 nM
# [27] = molecular target: Phosphatidylinositol 4,5-bisphosphate 3-kinase catalytic subunit delta isoform (Homo sapiens) (UniProt O00329); conditions: Compound concentration 1000.0 nM
# [28] = molecular target: Serine/threonine-protein kinase PLK2 (Homo sapiens) (UniProt Q9NYY3); conditions: Compound concentration 1000.0 nM
# [29] = molecular target: Protein kinase C eta type (Homo sapiens) (UniProt P24723); conditions: Compound concentration 1000.0 nM
# [30] = test system: Proto-oncogene tyrosine-protein kinase receptor Ret (Homo sapiens), P07949 [M918T]; conditions: Compound concentration 1000.0 nM
# [31] = molecular target: Serine/threonine-protein kinase RIO2 (Homo sapiens) (UniProt Q9BVS4); conditions: Compound concentration 1000.0 nM
# [32] = molecular target: Dual serine/threonine and tyrosine protein kinase (Homo sapiens) (UniProt Q6XUX3); conditions: Compound concentration 1000.0 nM
# [33] = molecular target: Ribosomal protein S6 kinase alpha-4 (Homo sapiens) (UniProt O75676); conditions: Compound concentration 1000.0 nM
# [34] = molecular target: Ribosomal protein S6 kinase alpha-5 (Homo sapiens) (UniProt O75582); conditions: Compound concentration 1000.0 nM
# [35] = molecular target: Serine/threonine-protein kinase TAO1 (Homo sapiens) (UniProt Q7L7X3); conditions: Compound concentration 1000.0 nM
# [36] = molecular target: Serine/threonine-protein kinase TAO2 (Homo sapiens) (UniProt Q9UL54); conditions: Compound concentration 1000.0 nM
# [37] = molecular target: Dual specificity protein kinase TTK (Homo sapiens) (UniProt P33981); conditions: Compound concentration 1000.0 nM
# [38] = molecular target: Tyrosine-protein kinase receptor TYRO3 (Homo sapiens) (UniProt Q06418); conditions: Compound concentration 1000.0 nM
# [39] = molecular target: Serine/threonine-protein kinase ULK2 (Homo sapiens) (UniProt Q8IYT8); conditions: Compound concentration 1000.0 nM
# [40] = molecular target: Vascular endothelial growth factor receptor 2 (Homo sapiens) (UniProt P35968); conditions: Compound concentration 1000.0 nM
# [41] = molecular target: Phosphatidylinositol 3-kinase catalytic subunit type 3 (Homo sapiens) (UniProt Q8NEB9); conditions: Compound concentration 1000.0 nM
# [42] = molecular target: Wee1-like protein kinase 2 (Homo sapiens) (UniProt P0C1S8); conditions: Compound concentration 1000.0 nM
# [43] = molecular target: Serine/threonine-protein kinase 32B (Homo sapiens) (UniProt Q9NY57); conditions: Compound concentration 1000.0 nM
# [44] = molecular target: D(2) dopamine receptor (Homo sapiens) (UniProt P14416); conditions: Compound concentration 10.0 uM
# [45] = molecular target: Sodium-dependent noradrenaline transporter (Homo sapiens) (UniProt P23975); conditions: Compound concentration 10.0 uM
# Tyrosine-protein kinase receptor UFO (Homo sapiens), sequence (P30530 whole entry): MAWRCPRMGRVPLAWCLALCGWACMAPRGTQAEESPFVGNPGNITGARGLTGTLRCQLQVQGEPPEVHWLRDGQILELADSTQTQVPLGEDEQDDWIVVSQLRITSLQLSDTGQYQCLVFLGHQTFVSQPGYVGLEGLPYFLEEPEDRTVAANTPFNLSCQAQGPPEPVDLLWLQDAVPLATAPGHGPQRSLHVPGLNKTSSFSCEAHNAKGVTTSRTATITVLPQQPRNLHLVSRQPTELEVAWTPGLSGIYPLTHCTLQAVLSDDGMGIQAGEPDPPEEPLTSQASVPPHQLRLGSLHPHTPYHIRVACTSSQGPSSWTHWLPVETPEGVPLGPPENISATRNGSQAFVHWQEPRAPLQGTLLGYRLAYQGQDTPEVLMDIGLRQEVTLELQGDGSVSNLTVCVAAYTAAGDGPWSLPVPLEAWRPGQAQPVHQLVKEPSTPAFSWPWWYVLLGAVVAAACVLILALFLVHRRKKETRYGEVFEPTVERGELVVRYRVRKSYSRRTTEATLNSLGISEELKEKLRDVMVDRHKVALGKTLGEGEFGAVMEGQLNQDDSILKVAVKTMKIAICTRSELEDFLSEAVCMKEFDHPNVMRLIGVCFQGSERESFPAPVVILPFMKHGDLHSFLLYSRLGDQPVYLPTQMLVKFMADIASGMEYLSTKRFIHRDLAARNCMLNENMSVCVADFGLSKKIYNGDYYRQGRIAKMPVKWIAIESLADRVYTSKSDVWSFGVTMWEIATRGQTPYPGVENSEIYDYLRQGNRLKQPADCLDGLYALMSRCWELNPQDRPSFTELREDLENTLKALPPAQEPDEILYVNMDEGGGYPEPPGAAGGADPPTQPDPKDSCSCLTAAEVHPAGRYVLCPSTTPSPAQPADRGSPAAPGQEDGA
# Cyclin-dependent kinase 4 (Homo sapiens), sequence (P11802 whole entry): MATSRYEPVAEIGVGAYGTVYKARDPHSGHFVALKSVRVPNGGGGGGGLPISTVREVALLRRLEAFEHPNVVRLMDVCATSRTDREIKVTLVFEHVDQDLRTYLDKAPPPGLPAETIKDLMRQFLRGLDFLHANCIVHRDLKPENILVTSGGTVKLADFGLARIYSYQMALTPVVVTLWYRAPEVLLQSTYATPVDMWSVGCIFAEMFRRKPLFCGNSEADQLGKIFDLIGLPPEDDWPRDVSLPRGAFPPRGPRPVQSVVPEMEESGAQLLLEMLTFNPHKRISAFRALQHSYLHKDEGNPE
# Mitogen-activated protein kinase kinase kinase 5 (Homo sapiens), sequence (Q99683 whole entry): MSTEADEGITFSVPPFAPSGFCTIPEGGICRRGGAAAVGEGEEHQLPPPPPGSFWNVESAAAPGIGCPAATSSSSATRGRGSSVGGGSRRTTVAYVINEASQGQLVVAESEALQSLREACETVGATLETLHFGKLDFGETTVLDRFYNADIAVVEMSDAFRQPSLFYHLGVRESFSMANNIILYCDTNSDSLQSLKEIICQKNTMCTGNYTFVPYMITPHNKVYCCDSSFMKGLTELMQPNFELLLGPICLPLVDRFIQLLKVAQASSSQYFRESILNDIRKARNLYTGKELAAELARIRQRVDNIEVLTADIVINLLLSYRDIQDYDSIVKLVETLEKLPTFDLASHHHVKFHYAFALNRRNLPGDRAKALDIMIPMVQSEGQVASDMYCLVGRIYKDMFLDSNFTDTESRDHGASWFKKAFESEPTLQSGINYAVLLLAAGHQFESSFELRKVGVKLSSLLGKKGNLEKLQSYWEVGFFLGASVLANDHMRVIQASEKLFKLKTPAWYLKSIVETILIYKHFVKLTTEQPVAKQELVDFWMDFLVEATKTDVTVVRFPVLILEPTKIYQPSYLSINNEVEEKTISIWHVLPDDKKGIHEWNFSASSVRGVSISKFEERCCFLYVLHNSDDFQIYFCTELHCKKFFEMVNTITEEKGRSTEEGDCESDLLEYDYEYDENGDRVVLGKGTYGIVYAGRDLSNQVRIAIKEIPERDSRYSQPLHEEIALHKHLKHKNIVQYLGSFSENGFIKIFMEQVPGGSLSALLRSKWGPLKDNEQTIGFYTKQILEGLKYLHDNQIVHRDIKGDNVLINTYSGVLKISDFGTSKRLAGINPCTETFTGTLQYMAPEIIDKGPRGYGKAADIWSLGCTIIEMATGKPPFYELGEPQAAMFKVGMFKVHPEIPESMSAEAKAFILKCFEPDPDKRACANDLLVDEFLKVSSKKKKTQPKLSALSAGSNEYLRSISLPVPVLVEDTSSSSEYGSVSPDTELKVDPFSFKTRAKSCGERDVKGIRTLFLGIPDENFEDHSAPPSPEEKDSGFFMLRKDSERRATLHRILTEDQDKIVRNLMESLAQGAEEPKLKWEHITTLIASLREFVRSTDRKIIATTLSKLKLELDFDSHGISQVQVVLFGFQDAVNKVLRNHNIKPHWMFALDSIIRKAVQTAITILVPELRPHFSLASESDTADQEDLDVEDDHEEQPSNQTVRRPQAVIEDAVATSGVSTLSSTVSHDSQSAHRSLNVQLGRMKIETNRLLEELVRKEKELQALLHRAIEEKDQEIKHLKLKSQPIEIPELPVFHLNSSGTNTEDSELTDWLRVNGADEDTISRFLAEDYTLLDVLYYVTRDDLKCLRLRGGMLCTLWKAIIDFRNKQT
# Mitogen-activated protein kinase kinase kinase 1 (Homo sapiens), sequence (Q13233 whole entry): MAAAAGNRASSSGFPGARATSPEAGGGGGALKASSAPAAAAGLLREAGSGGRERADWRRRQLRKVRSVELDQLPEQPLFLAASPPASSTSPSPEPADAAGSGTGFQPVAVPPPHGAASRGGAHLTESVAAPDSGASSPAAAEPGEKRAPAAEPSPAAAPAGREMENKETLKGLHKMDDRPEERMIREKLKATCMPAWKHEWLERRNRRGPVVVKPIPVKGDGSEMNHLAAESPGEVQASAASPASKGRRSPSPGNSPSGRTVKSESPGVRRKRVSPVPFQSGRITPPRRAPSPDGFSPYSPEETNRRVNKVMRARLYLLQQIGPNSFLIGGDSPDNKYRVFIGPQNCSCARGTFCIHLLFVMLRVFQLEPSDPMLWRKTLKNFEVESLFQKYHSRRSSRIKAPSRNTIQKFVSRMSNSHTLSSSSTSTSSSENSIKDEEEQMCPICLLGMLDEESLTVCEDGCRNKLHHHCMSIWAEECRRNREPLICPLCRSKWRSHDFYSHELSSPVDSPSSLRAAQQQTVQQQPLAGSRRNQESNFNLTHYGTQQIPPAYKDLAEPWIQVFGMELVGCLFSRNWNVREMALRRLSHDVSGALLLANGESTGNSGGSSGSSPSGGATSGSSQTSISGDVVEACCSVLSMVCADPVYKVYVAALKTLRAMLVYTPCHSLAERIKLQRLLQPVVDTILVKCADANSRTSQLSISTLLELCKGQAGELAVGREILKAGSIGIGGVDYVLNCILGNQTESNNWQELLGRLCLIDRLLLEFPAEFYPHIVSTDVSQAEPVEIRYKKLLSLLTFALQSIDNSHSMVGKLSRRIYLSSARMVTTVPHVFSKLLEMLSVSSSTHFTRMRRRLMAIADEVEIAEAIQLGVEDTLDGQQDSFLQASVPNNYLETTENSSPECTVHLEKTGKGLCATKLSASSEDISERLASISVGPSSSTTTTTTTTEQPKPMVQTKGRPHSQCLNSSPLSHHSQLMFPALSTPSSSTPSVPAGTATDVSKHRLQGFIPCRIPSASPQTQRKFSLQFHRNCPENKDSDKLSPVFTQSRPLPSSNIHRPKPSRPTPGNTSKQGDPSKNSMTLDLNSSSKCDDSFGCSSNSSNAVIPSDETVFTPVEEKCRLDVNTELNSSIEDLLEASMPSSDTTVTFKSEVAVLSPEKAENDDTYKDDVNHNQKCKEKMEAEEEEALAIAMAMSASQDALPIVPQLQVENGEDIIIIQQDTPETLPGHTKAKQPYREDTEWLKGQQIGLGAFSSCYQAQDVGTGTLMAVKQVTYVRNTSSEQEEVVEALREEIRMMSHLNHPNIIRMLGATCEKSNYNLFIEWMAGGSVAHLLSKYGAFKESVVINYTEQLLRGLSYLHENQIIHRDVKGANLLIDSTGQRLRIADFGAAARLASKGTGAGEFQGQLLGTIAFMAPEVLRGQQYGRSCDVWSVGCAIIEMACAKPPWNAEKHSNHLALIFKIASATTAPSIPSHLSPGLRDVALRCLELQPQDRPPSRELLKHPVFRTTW
# Ribosomal protein S6 kinase alpha-4 (Homo sapiens), sequence (O75676 whole entry, looked up): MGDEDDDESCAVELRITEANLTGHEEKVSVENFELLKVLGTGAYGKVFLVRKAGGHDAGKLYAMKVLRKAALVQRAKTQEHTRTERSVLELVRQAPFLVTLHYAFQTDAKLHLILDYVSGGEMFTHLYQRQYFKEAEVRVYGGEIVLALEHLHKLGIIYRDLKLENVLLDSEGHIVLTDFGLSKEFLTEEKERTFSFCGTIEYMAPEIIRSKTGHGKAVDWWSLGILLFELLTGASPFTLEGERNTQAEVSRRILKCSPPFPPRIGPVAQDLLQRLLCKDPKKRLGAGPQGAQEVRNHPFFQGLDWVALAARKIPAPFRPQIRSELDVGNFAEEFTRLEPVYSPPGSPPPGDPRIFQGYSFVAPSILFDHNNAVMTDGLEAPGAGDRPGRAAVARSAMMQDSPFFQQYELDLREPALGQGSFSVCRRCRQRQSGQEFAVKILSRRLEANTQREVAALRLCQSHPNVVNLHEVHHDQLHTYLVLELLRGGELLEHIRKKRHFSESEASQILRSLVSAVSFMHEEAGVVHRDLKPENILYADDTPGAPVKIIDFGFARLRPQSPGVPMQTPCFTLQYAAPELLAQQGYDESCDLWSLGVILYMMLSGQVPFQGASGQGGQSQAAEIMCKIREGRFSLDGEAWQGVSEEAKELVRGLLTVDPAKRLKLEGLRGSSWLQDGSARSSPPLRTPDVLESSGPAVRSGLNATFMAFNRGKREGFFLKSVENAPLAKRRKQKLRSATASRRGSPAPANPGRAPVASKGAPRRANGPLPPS
structure (smiles),measurement,setting,value
CCC(=N\O)/C(C)=C/c1ccc(F)c(C)c1 [A-226],residual activity,[1],100%
same,residual activity,[2],100%
same,residual activity,[3],100%
same,residual activity,[4],100%
same,residual activity,[5],100%
same,residual activity,[6],86%
same,residual activity,[7],100%
same,residual activity,[8],100%
same,residual activity,[9],96%
same,residual activity,[10],72%
same,residual activity,[11],85%
same,residual activity,[12],100%
same,residual activity,[13],100%
same,residual activity,[14],90%
same,residual activity,[15],100%
same,residual activity,[16],100%
same,residual activity,[17],100%
same,residual activity,[18],100%
same,residual activity,[19],100%
same,residual activity,[20],100%
same,residual activity,[21],100%
same,residual activity,[22],100%
same,residual activity,[23],100%
same,residual activity,[24],99%
same,residual activity,[25],100%
same,residual activity,[26],98%
same,residual activity,[27],100%
same,residual activity,[28],100%
same,residual activity,[29],68%
same,residual activity,[30],92%
same,residual activity,[31],73%
same,residual activity,[32],95%
same,residual activity,[33],91%
same,residual activity,[34],78%
same,residual activity,[35],100%
same,residual activity,[36],100%
same,residual activity,[37],93%
same,residual activity,[38],100%
same,residual activity,[39],100%
same,residual activity,[40],100%
same,residual activity,[41],100%
same,residual activity,[42],100%
same,residual activity,[43],99%
same,inhibition,[44],-6.57%
same,inhibition,[45],-0.42%
CCC(=N\O)/C(C)=C/c1ccc(F)cc1 [A-079],residual activity,[1],80%
same,residual activity,[2],79%
same,residual activity,[3],93%
same,residual activity,[4],100%
same,residual activity,[5],100%
same,residual activity,[6],100%
same,residual activity,[7],82%
same,residual activity,[8],74%
same,residual activity,[9],100%
same,residual activity,[10],88%
same,residual activity,[11],73%
same,residual activity,[12],67%
same,residual activity,[13],95%
same,residual activity,[14],77%
same,residual activity,[15],100%
same,residual activity,[16],94%
same,residual activity,[17],64%
same,residual activity,[18],80%
same,residual activity,[19],63%
same,residual activity,[20],71%
same,residual activity,[21],100%
same,residual activity,[22],84%
same,residual activity,[23],79%
same,residual activity,[24],90%
same,residual activity,[25],100%
same,residual activity,[26],75%
same,residual activity,[27],72%
same,residual activity,[28],78%
same,residual activity,[29],100%
same,residual activity,[30],100%
same,residual activity,[31],86%
same,residual activity,[32],66%
same,residual activity,[33],81%
same,residual activity,[34],100%
same,residual activity,[35],100%
same,residual activity,[36],94%
same,residual activity,[37],96%
same,residual activity,[38],100%
same,residual activity,[39],46%
same,residual activity,[40],81%
same,residual activity,[41],83%
same,residual activity,[42],83%
same,residual activity,[43],100%
same,inhibition,[44],-8.66%
same,inhibition,[45],-2.32%
